Columns and labels:
Format in all cases: functional
Settings in all cases: read-out: IZ
Candida albicans = assay: Antimicrobial activity against Candida albicans ATCC 90029 at 250 ug/disk by standard disk assay
Bacillus subtilis = assay: Antimicrobial activity against Bacillus subtilis ATCC 6051 at 200 ug/disk by standard disk assay
Staphylococcus aureus = assay: Antimicrobial activity against Staphylococcus aureus ATCC 29213 at 200 ug/disk by standard disk assay

Row | SMILES | zone of inhibition at 250 µg/disc (Candida albicans) | zone of inhibition at 200 µg/disc (Bacillus subtilis) | zone of inhibition at 200 µg/disc (Staphylococcus aureus)
1 | Cc1cc(=O)c(O)cc2c1C[C@@H](C)[C@@]1(OC[C@@H](C)[C@H]1O)O2 [MALETTININ C] | 13 mm | 15 mm | 12 mm
2 | Cc1cc(=O)c(O)cc2c1C[C@@H](C)[C@]1(OC[C@@H](C)[C@H]1O)O2 [MALETTININ B] | 19 mm | 26 mm | 24 mm
